The results in this text go back to ChEMBL document CHEMBL1201862, “PubChem BioAssay data set” (2004).

Among the test systems are NCI-H23; RPMI-8226; SW-620; SNB-75; HT-29; HCT-15; UACC-257; CAKI-1; HCT-116; LOX IMVI; K562; LXFL 529; SK-MEL-2; EKVX; RXF 393; KM12; SF-268; COLO 205; NCI-H522; HCC 2998.
What all share (assay): DTP human tumour cell line panel, 48 h

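Step 1: Grow cells in 96-well plates. Step 2: Expose to compound for 48 hours at 5 concentrations. Step 3: Interpolate endpoints linearly; if unreached, use highest concentration. GI50: concentration for 50% inhibition of growth.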 Activity calls are given as the source filed them. No stated cut-off is given here; in the data, active = GI50 up to about 1.1 µM and inactive = higher. Where only a bound is given, the exact number is not on record here.

The GI50 is the concentration that inhibits growth by half. For `OC(c1ccccc1)C1CC2C=CC1C2` (stereo unspecified), the GI50 is > 100 µM (inactive) in the assay on NCI-H23; > 100 µM (inactive) in the assay on RPMI-8226; > 100 µM (inactive) with SW-620; > 100 µM (inactive) with SNB-75; > 100 µM (inactive) with HT-29; more than 100 µM in the assay on HCT-15. Moreover, the GI50 with UACC-257, in the assay on CAKI-1, in the assay on HCT-116, in the assay with LOX IMVI, in the assay with K562 and in the assay with LXFL 529 was > 100 µM (inactive) throughout. Also, the GI50 in the assay with SK-MEL-2, with EKVX, in the assay on RXF 393, with KM12, in the assay on SF-268 and in the assay with COLO 205 was > 100 µM (inactive) each time. In the assay with NCI-H522, the GI50 was > 100 µM (inactive).
Take `COc1ccc(N2C(=O)C3c4[nH]c5c(C)cccc5c4C4CCC(C(C)(C)C)CC4C3C2=O)cc1` (stereo unspecified): the GI50 in the assay with NCI-H23 was 4.19 µM (inactive); in the assay on RPMI-8226 it was 6 µM (inactive); in the assay on SW-620 it was 6.62 µM (inactive); with HCC 2998, 2.48 µM (inactive); in the assay on SNB-75, > 10 µM (inactive); in the assay with HT-29, 2.32 µM (inactive). Further, the 50% growth inhibitory concentration (GI50) in the assay on HCT-15 is more than 10 µM; in the assay on CAKI-1, > 10 µM (inactive); in the assay on HCT-116, 5.01 µM (inactive); with LOX IMVI, 2.16 µM (inactive); with K562 it was 4.51 µM (inactive); with SK-MEL-2, > 10 µM (inactive). For the same molecule, the GI50 in the assay with EKVX is 5.18 µM (inactive); with RXF 393, 3.36 µM (inactive); in the assay with KM12, 5.13 µM (inactive); with SF-268 it was 5.61 µM (inactive); in the assay with COLO 205 it was 5.97 µM (inactive); with NCI-H522, > 10 µM (inactive).
With `OC12c3ccccc3C1CCCCCCCCCC21OCCCO1` (stereo unspecified), the GI50 in the assay on NCI-H23, in the assay with RPMI-8226, in the assay with SW-620, in the assay with HCC 2998, with SNB-75 and with HT-29 was > 100 µM (inactive) in each case. Moreover, the 50% growth inhibitory concentration (GI50) in the assay on HCT-15 was 5.15 µM; with UACC-257, > 100 µM (inactive); in the assay on HCT-116, 4.06 µM (inactive); with LOX IMVI it was > 100 µM (inactive); in the assay with K562 it was 5.09 µM (inactive); with LXFL 529, > 100 µM (inactive). The GI50 in the assay on EKVX, in the assay with KM12, in the assay on SF-268, in the assay with COLO 205 and in the assay on NCI-H522 was > 100 µM (inactive) each time.
`CCN(CC)CCC(=O)c1ccccc1`: the GI50 with NCI-H23 was 19.1 µM (inactive); in the assay on RPMI-8226, 2.85 µM (inactive); with SW-620, 19.6 µM (inactive); with HCC 2998, 56 µM (inactive); with SNB-75, 12.5 µM (inactive); in the assay on HT-29 it was 28.2 µM (inactive). Moreover, the GI50 in the assay on HCT-15 was 20.1 µM; with UACC-257, 24.2 µM (inactive); in the assay on HCT-116, 17.3 µM (inactive); in the assay on LOX IMVI it was 19.4 µM (inactive); in the assay on K562, 7.45 µM (inactive); in the assay on LXFL 529, 17.8 µM (inactive). The GI50 in the assay on SK-MEL-2 is > 100 µM (inactive); with EKVX it was 60 µM (inactive); in the assay with RXF 393 it was 20.4 µM (inactive); in the assay with KM12 it was 43.4 µM (inactive); in the assay on SF-268, 17.8 µM (inactive); with COLO 205, > 10 µM (inactive).
With `COc1cc(O)c2c(=O)c(O)c(-c3ccc(O)c(O)c3)oc2c1` [RHAMNETIN], the GI50 in the assay with RPMI-8226 is 6.73 µM (inactive); in the assay on SW-620 it was 10.8 µM (inactive); in the assay with HCC 2998, 14 µM (inactive); with HT-29, 15.9 µM (inactive); in the assay on HCT-15, 8.04 µM; with UACC-257, 13 µM (inactive). The GI50 in the assay on CAKI-1 was 1.09 µM (active); in the assay with HCT-116 it was 14.6 µM (inactive); in the assay with LOX IMVI, 11.7 µM (inactive); in the assay with K562 it was 9.53 µM (inactive); in the assay with EKVX, 10.2 µM (inactive); with SF-268, 7.26 µM (inactive). Besides, the figures for the GI50 in the assay on COLO 205 and in the assay on NCI-H522 were 13.5 µM (inactive) and 3.15 µM (inactive), respectively.
